Measurements as given in patent US20050155119A1, “Chlorophyllous totipotent cell cultures” (Dow AgroSciences LLC, priority 2004, published 2005).

What was measured:
rice = details: in vivo; cited from earlier work
maize = details: in vivo; cited from earlier work
green suspension cells = test: Response of the green maize suspension to streptomycin and spectinomycin; assay type: cell-based
PS-II electron transport = test: Oxygen electrode determination of photosynthetic electron transport with diuron; assay type: cell-based, maize
Description: The oxygen electrode was set up per manufacturer's instructions by covering the silver electrode with layers of KCl solution, cigarette paper, and PTFE gas permeable membrane. The circulating water bath used to maintain a constant temperature of 24° C. during the course of the experiments. An experiment was initiated by the addition of 1 mL of suspension containing 100 mg of the green suspension cells to the electrode chamber. Oxygen uptake within the chamber was limited by the insertion of a plunger to the level of the liquid, and the flea magnet was turned on to assure adequate mixing during each experiment. Data points were collected by LabVIEW 5.1 and sent to an EXCEL spreadsheet. Data points were collected at a rate of 0.2/sec over 70 scans. […]
Photosynthetic electron transport was measured with an oxygen electrode in the absence and presence of diuron (DCMU), a PS-II electron transport inhibitor at several concentrations (Figure below). […] A light intensity of 225 μmol M^−2 S^−1 photosynthetic photon flux density was used to drive electron transport, and oxygen evolution was measured polarographically.
Whether or not Diuron treatment lead to inhibition of oxygen was investigated using an oxygen electrode. To determine amount of photosynthesis occurring in the cells, respiration rates were measured with and without the exposure of the cells to a strong light source. […]

Brassica juncea = details: 100 mg Zn/l (1529 μm) added to soil mixtures; cited from earlier work
Halophila ovalis = details: 10 mg/l of Zn (153 μm); cited from earlier work

In the case of [Cu] [Cu, Copper], the “critical Cu toxicity level” value (rice) is given as 20 mg/kg, the “No Observable Adverse Effect Level (tissue concentration that did not decrease top growth)” value (maize) is given as 40 mg/kg and the “critical Cu toxicity level” value (maize) is given as 20 mg/kg. The “critical level of Cu” value (maize) was 21 mg/kg.

With [H]/N=C(/N)N[C@H]1[C@H](O)[C@@H](O)[C@H](O[C@@H]2O[C@@H](C)[C@](O)(C=O)[C@H]2O[C@@H]2O[C@@H](CO)[C@H](O)[C@@H](O)[C@@H]2NC)[C@@H](N/C(N)=N\[H])[C@@H]1O [Streptomycin] the “plants recovered when germinated in Streptomycin-containing medium” value (green suspension cells; 62.5 mg/L) was “albino plants were recovered”, the bleaching of cells (green suspension cells; 125 mg/L) was “fully bleached” and the “plants recovered when germinated in Streptomycin-containing medium” value (green suspension cells; 125 mg/l (FIG. 2 legend)) was “albino plants were recovered”. For the same compound, the bleaching of cells (green suspension cells; 250 mg/L (FIG. 2 legend)) was “partially bleached”, the appearance of cells (green suspension cells; 500 mg/L) was “excessive browning and necrosis” and the “growth and appearance of green suspension cells” value (green suspension cells; 500 mg/l, after ~4 weeks) was “growth was inhibited, and the cells were bleached or browned and showed excessive necrosis”.

In the case of CN(C)C(=O)Nc1ccc(Cl)c(Cl)c1 [diuron], the “concentration with greater effect of inhibiting the light reaction of photosynthesis” value (PS-II electron transport; 100 mg green suspension in 1 mL, illuminated, oxygen electrode) is reported as 0.01 M and the “effect on light induced oxygen evolution” value (PS-II electron transport; green suspension, FIG. 4) is reported as “cut down the light induced oxygen evolution”.

In the case of CN[C@@H]1[C@H](O)[C@H](NC)[C@H]2O[C@@]3(O)C(=O)C[C@@H](C)O[C@H]3O[C@@H]2[C@H]1O [spectinomycin], the “response of the green suspension” value (green suspension cells; various spectinomycin concentrations) is reported as “did not respond”.

In the case of [Zn] [Zn, Zinc], the phytotoxicity (Brassica juncea) is given as “not phytotoxic” and the total chlorophyll concentrations (Halophila ovalis) is given as “increase in total chlorophyll concentrations”.
